# What was measured:
# Experiment in all cases: relative viability (nuclei count vs DMSO), 5 days (fraction); higher = more cells survive
# BI-D1870 + Trametinib = compound: CC(C)CCN1c2nc(Nc3cc(F)c(O)c(F)c3)ncc2N(C)C(=O)C1C [BI-D1870] + CC(=O)Nc1cccc(-n2c(=O)n(C3CC3)c(=O)c3c(Nc4ccc(I)cc4F)n(C)c(=O)c(C)c32)c1 [Trametinib] (partner 0.02 µM)
# Summary of the method: (§1)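 For relative viability, nuclei counts in treated wells were divided by those in vehicle wells. Lung cancer cell lines had been pin-tool dosed in 1536-well plates the day after seeding and cultured for 5 days, then fixed and stained in one step (final 0.05% Triton X-100, 1% formaldehyde, 1 ug/ml Hoechst) and imaged at 4×. Doses were one drug alone or a fixed anchor-drug dose plus five library-drug doses (not always all listed) in √10 steps, and values are duplicate-plate medians.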
# BI-D1870 + Phenformin = compound: CC(C)CCN1c2nc(Nc3cc(F)c(O)c(F)c3)ncc2N(C)C(=O)C1C [BI-D1870] + N=C(N)NC(=N)NCCc1ccccc1 [Phenformin] (partner 250 µM)
# Summary of the method: as §1
# BI-D1870 + Decitabine = compound: CC(C)CCN1c2nc(Nc3cc(F)c(O)c(F)c3)ncc2N(C)C(=O)C1C [BI-D1870] + Nc1ncn([C@H]2C[C@H](O)[C@@H](CO)O2)c(=O)n1 [Decitabine] (partner 2 µM)
# Summary of the method: as §1
# Zebularine + Navitoclax = compound: O=c1ncccn1[C@@H]1O[C@H](CO)[C@@H](O)[C@H]1O [Zebularine] + CC1(C)CCC(c2ccc(Cl)cc2)=C(CN2CCN(c3ccc(C(=O)NS(=O)(=O)c4ccc(N[C@H](CCN5CCOCC5)CSc5ccccc5)c(S(=O)(=O)C(F)(F)F)c4)cc3)CC2)C1 [Navitoclax] (partner 0.5 µM)
# Summary of the method: as §1
Cell Line,relative viability (BI-D1870 + Trametinib; first compound 0.04 µM),relative viability (BI-D1870 + Trametinib; first compound 0.1265 µM),relative viability (BI-D1870 + Trametinib; first compound 0.4 µM),relative viability (BI-D1870 + Trametinib; first compound 1.265 µM),relative viability (BI-D1870 + Trametinib; first compound 4 µM),relative viability (BI-D1870 + Phenformin; first compound 0.04 µM),relative viability (BI-D1870 + Phenformin; first compound 0.1265 µM),relative viability (BI-D1870 + Phenformin; first compound 0.4 µM),relative viability (BI-D1870 + Phenformin; first compound 1.265 µM),relative viability (BI-D1870 + Phenformin; first compound 4 µM),relative viability (BI-D1870 + Decitabine; first compound 0.04 µM),relative viability (BI-D1870 + Decitabine; first compound 0.1265 µM),relative viability (BI-D1870 + Decitabine; first compound 0.4 µM),relative viability (BI-D1870 + Decitabine; first compound 1.265 µM),relative viability (BI-D1870 + Decitabine; first compound 4 µM),relative viability (Zebularine + Navitoclax; first compound 1 µM),relative viability (Zebularine + Navitoclax; first compound 3.162 µM),relative viability (Zebularine + Navitoclax; first compound 10 µM),relative viability (Zebularine + Navitoclax; first compound 31.62 µM),relative viability (Zebularine + Navitoclax; first compound 100 µM)
NCI-H2126,0.557,0.598,0.564,0.546,0.539,0.525,0.493,0.508,0.53,0.511,0.576,0.549,0.585,0.606,0.556,0.862,0.813,0.766,0.735,0.509
LXF-289,0.755,0.608,0.71,0.738,0.612,0.561,0.493,0.491,0.529,0.451,0.35,0.382,0.372,0.411,0.416,1.02,0.945,0.851,0.744,0.226
NCI-H2009,0.299,0.221,0.248,0.289,0.198,0.546,0.457,0.456,0.329,0.222,0.379,0.366,0.394,0.397,0.3,1.12,1.13,0.951,0.876,0.358
NCI-H2405,0.683,0.595,0.586,0.67,0.601,0.436,0.415,0.386,0.438,0.398,0.788,0.693,0.733,0.777,0.726,0.913,0.831,0.798,0.833,0.61
NCI-H1755,0.758,0.774,0.74,0.831,0.739,0.651,0.62,0.647,0.688,0.573,0.716,0.685,0.701,0.715,0.692,1.14,1.04,0.773,1.01,0.444
HCC-78,0.526,0.655,0.675,1.03,0.569,0.72,0.796,0.795,0.822,0.593,0.755,0.774,0.791,0.727,0.746,0.811,0.775,0.592,0.497,0.22
LOU-NH91,0.842,0.762,0.788,0.761,0.651,0.744,0.63,0.703,0.817,0.558,0.876,0.8,0.792,0.821,0.629,0.676,0.659,0.634,0.603,0.395
NCI-H3122,0.234,0.202,0.234,0.25,0.279,0.362,0.354,0.383,0.39,0.346,0.51,0.333,0.478,0.427,0.508,1.06,1.02,0.943,1.08,1.02
HCC-827,0.551,0.495,0.463,0.456,0.432,0.436,0.38,0.375,0.436,0.366,0.333,0.322,0.306,0.365,0.402,0.98,0.986,0.968,0.714,0.418
SK-LU-1,0.553,0.403,0.372,0.515,0.408,0.505,0.525,0.514,0.63,0.358,0.653,0.607,0.652,0.604,0.536,0.965,0.868,0.435,0.61,0.306
NCI-H1975,0.373,0.285,0.339,0.365,0.289,0.4,0.37,0.422,0.426,0.313,0.436,0.348,0.411,0.361,0.368,1.13,1.08,0.64,0.575,0.229
NCI-H1651,0.874,0.881,0.81,0.936,0.828,0.389,0.315,0.287,0.295,0.322,0.615,0.592,0.537,0.64,0.617,1.22,1.03,,0.971,0.506
NCI-H441,0.524,0.417,0.463,0.578,0.378,1.02,0.832,0.74,1.17,0.872,0.249,0.273,0.275,0.255,0.312,0.815,0.467,0.366,0.368,0.245
LCLC-97TM1,0.214,0.181,0.174,0.221,0.146,0.458,0.472,0.396,0.417,0.453,0.236,0.231,0.209,0.255,0.262,0.422,0.351,0.238,0.149,0.143
NCI-H727,0.41,0.406,0.406,0.438,0.429,0.53,0.614,0.587,0.712,0.462,1.02,0.883,0.909,0.921,1.01,0.492,0.451,0.474,0.442,0.411
NCI-H1355,0.455,0.361,0.448,0.418,0.454,0.494,0.418,0.44,0.46,0.38,0.363,0.31,0.356,0.412,0.394,0.955,0.894,0.898,0.456,0.306
HOP-62,0.429,0.332,0.331,0.367,0.299,0.705,0.657,0.719,0.823,0.664,0.212,0.241,0.208,0.198,0.314,1.11,1.01,0.424,0.217,0.197
NCI-H2085,0.547,0.411,0.576,0.654,0.524,0.806,0.658,0.676,0.69,0.52,0.541,0.556,0.643,0.519,0.557,1.19,1.17,0.868,1.08,0.573

# — the supplement of paper PMC10307832
